Experimental data reported in the NIST ThermoML archive (doi:10.1016/j.jct.2007.07.005).

Experiment: xn = mol fraction of the nth substance listed
Settings: Fluid (supercritical or subcritical phases), vibrating tube

CCCCCO [pentan-1-ol] + O=C=O
Settings | mass density [kg/m3]
323.05 K, 13025 kPa, x2 = 0.0816 | 806.04
323.05 K, 13028 kPa, x2 = 0.8067 | 814.77
323.05 K, 14019 kPa, x2 = 0.3624 | 822.92
323.05 K, 14021 kPa, x2 = 0.0816 | 806.82
323.05 K, 14024 kPa, x2 = 0.8067 | 820.63
323.05 K, 14024 kPa, x2 = 0.9757 | 722.69
323.05 K, 14031 kPa, x2 = 0.4651 | 829.31
323.05 K, 14965 kPa, x2 = 0.9757 | 740.5
323.05 K, 14990 kPa, x2 = 0.4651 | 830.68
323.05 K, 15001 kPa, x2 = 0.8067 | 825.93
323.05 K, 15006 kPa, x2 = 0.3624 | 823.89
323.05 K, 15017 kPa, x2 = 0.0816 | 807.57
323.05 K, 16002 kPa, x2 = 0.3624 | 824.89
323.05 K, 16018 kPa, x2 = 0.9757 | 757.4
323.05 K, 16021 kPa, x2 = 0.0816 | 808.32
323.05 K, 16027 kPa, x2 = 0.4651 | 832.14
323.05 K, 16066 kPa, x2 = 0.8067 | 831.24
323.05 K, 17005 kPa, x2 = 0.0816 | 809.07
323.05 K, 17018 kPa, x2 = 0.4651 | 833.51
323.05 K, 17021 kPa, x2 = 0.3624 | 825.87
323.05 K, 17021 kPa, x2 = 0.8067 | 835.7
323.05 K, 17052 kPa, x2 = 0.9757 | 771.8
323.05 K, 17994 kPa, x2 = 0.4651 | 834.85
323.05 K, 18001 kPa, x2 = 0.3624 | 826.81
323.05 K, 18002 kPa, x2 = 0.8067 | 840
323.05 K, 18028 kPa, x2 = 0.9757 | 783.78
323.05 K, 18049 kPa, x2 = 0.0816 | 809.83
323.05 K, 18975 kPa, x2 = 0.0816 | 810.52
323.05 K, 19012 kPa, x2 = 0.8067 | 844.21
323.05 K, 19034 kPa, x2 = 0.3624 | 827.81
323.05 K, 19035 kPa, x2 = 0.9757 | 794.96
323.05 K, 19057 kPa, x2 = 0.4651 | 836.29
323.05 K, 19998 kPa, x2 = 0.3624 | 828.72
323.05 K, 20002 kPa, x2 = 0.9757 | 804.8
323.05 K, 20009 kPa, x2 = 0.4651 | 837.54
323.05 K, 20044 kPa, x2 = 0.8067 | 848.26
323.05 K, 20047 kPa, x2 = 0.0816 | 811.3
323.05 K, 20997 kPa, x2 = 0.0816 | 811.98
323.05 K, 21033 kPa, x2 = 0.3624 | 829.67
323.05 K, 21034 kPa, x2 = 0.4651 | 838.89
323.05 K, 21046 kPa, x2 = 0.8067 | 851.97
323.05 K, 21049 kPa, x2 = 0.9757 | 814.6
323.05 K, 21991 kPa, x2 = 0.0816 | 812.7
323.05 K, 22013 kPa, x2 = 0.3624 | 830.58
323.05 K, 22017 kPa, x2 = 0.4651 | 840.19
323.05 K, 22017 kPa, x2 = 0.8067 | 855.5
323.05 K, 22020 kPa, x2 = 0.9757 | 823
323.05 K, 22767 kPa, x2 = 0.9757 | 829.12
323.05 K, 22970 kPa, x2 = 0.8067 | 858.77
323.05 K, 22997 kPa, x2 = 0.3624 | 831.49
323.05 K, 23022 kPa, x2 = 0.4651 | 841.47
323.05 K, 23054 kPa, x2 = 0.0816 | 813.46
323.05 K, 23901 kPa, x2 = 0.4651 | 842.61
323.05 K, 23987 kPa, x2 = 0.0816 | 814.12
323.05 K, 24062 kPa, x2 = 0.3624 | 832.47
323.05 K, 24707 kPa, x2 = 0.3624 | 833.04
323.05 K, 25014 kPa, x2 = 0.0816 | 814.87
323.06 K, 11010 kPa, x2 = 0.8573 | 775.4
323.06 K, 11028 kPa, x2 = 0.9216 | 732.55
323.06 K, 12011 kPa, x2 = 0.9216 | 751.44
323.06 K, 12019 kPa, x2 = 0.8573 | 787.14
323.06 K, 13011 kPa, x2 = 0.8573 | 796.54
323.06 K, 13032 kPa, x2 = 0.9216 | 766.64
323.06 K, 14000 kPa, x2 = 0.8573 | 804.66
323.06 K, 14011 kPa, x2 = 0.9216 | 778.82
323.06 K, 15019 kPa, x2 = 0.8573 | 812.19
323.06 K, 15028 kPa, x2 = 0.9216 | 789.81
323.06 K, 15995 kPa, x2 = 0.9216 | 799.06
323.06 K, 16044 kPa, x2 = 0.8573 | 819.03
323.06 K, 17005 kPa, x2 = 0.8573 | 824.92
323.06 K, 17047 kPa, x2 = 0.9216 | 808.18
323.06 K, 18002 kPa, x2 = 0.9216 | 815.71
323.06 K, 18049 kPa, x2 = 0.8573 | 830.83
323.06 K, 19010 kPa, x2 = 0.8573 | 835.97
323.06 K, 19033 kPa, x2 = 0.9216 | 823.28
323.06 K, 19996 kPa, x2 = 0.9216 | 829.83
323.06 K, 20006 kPa, x2 = 0.8573 | 840.95
323.06 K, 20987 kPa, x2 = 0.8573 | 845.64
323.06 K, 21053 kPa, x2 = 0.9216 | 836.6
323.06 K, 21758 kPa, x2 = 0.9216 | 840.85
323.06 K, 22019 kPa, x2 = 0.8573 | 850.27
323.06 K, 23021 kPa, x2 = 0.8573 | 854.64
323.06 K, 24075 kPa, x2 = 0.8573 | 858.97
323.08 K, 11058 kPa, x2 = 0.7274 | 819.26
323.08 K, 12031 kPa, x2 = 0.7274 | 823.11
323.08 K, 13034 kPa, x2 = 0.7274 | 826.85
323.08 K, 14040 kPa, x2 = 0.7274 | 830.38
323.08 K, 15010 kPa, x2 = 0.7274 | 833.59
323.08 K, 16026 kPa, x2 = 0.7274 | 836.83
323.08 K, 17015 kPa, x2 = 0.7274 | 839.83
323.08 K, 17987 kPa, x2 = 0.7274 | 842.68
323.08 K, 19054 kPa, x2 = 0.7274 | 845.68
323.08 K, 19981 kPa, x2 = 0.7274 | 848.2
323.08 K, 21008 kPa, x2 = 0.7274 | 850.93
323.08 K, 22014 kPa, x2 = 0.7274 | 853.5
323.08 K, 23019 kPa, x2 = 0.7274 | 855.98
323.08 K, 23836 kPa, x2 = 0.7274 | 857.96
323.11 K, 6015 kPa, x2 = 0.1347 | 801.54
323.11 K, 7002 kPa, x2 = 0.1347 | 802.41
323.11 K, 8020 kPa, x2 = 0.1347 | 803.27
323.11 K, 9002 kPa, x2 = 0.1347 | 804.12
323.11 K, 9115 kPa, x2 = 0.6054 | 824.57
323.11 K, 10017 kPa, x2 = 0.1347 | 804.97
323.11 K, 10057 kPa, x2 = 0.6054 | 826.64
323.11 K, 11055 kPa, x2 = 0.1347 | 805.83
323.11 K, 11062 kPa, x2 = 0.6054 | 828.82
323.11 K, 12029 kPa, x2 = 0.1347 | 806.64
323.11 K, 12049 kPa, x2 = 0.6054 | 830.92
323.11 K, 13031 kPa, x2 = 0.1347 | 807.47
323.11 K, 13068 kPa, x2 = 0.6054 | 833.05
323.11 K, 14038 kPa, x2 = 0.1347 | 808.26
323.11 K, 14062 kPa, x2 = 0.6054 | 835.02
323.11 K, 15022 kPa, x2 = 0.1347 | 809.05
323.11 K, 15036 kPa, x2 = 0.6054 | 836.96
323.11 K, 16015 kPa, x2 = 0.1347 | 809.84
323.11 K, 16032 kPa, x2 = 0.6054 | 838.86
323.11 K, 17022 kPa, x2 = 0.1347 | 810.64
323.11 K, 17053 kPa, x2 = 0.6054 | 840.77
323.11 K, 18041 kPa, x2 = 0.1347 | 811.39
323.11 K, 18069 kPa, x2 = 0.6054 | 842.62
323.11 K, 19010 kPa, x2 = 0.1347 | 812.15
323.11 K, 19041 kPa, x2 = 0.6054 | 844.36
323.11 K, 20025 kPa, x2 = 0.1347 | 812.91
323.11 K, 20032 kPa, x2 = 0.6054 | 846.09
